Article PMC13434769 (2026)
Blank lines part the entries; values can stand above or below the compound they belong to.

Experiments:
[1] = test system: tetracycline aptamer (SMFS construct) (RNA, aptamer) GGCAGGGCUGACGUAGUUGGAGUGGUGCGGGAGGAUAUAGUAAUCUGCAAAACAUACCAGAUGAAAAUCUGGAGAGGUGAAGAAUACGACCACCUGCAGAUUACUAUAUAGUGAGGGCAGAAUUCAGGUG; test: optical tweezers force ramp; settings: 250 mM KCl, 20 mM NaCl, 5 mM MgCl2; 40 mM HEPES pH 7.4, ~25 °C; P1 unfolding force increased
[2] = test system: G12 (RNA, aptamer) GGGCAACUCCAAGCUAGAUCUACCGGUAAUUUAGGUCAUUGAGUGAACAGACGUCAAGCUAGUUGGGCUACUGGCUUCUAAAACACAGGUAAAAUG; test: fluorescence titration (intrinsic fluorescence); settings: K+ (20 mM KPO4), 100 mM NaCl, 10 mM MgCl2, pH 7.5
[3] = test system: G12 long stem (SMFS construct) (RNA, aptamer) GGCAGGGCUGACGUAGUUGGAGUGGUGCGGGAGGGGAGUAAUCUCGGUCAUUGAGUGAACAGACGUCAAGCUAGUUGGGCUACUGGCUUCGAGAUUACUCCAGUGAGGGCAGAAUUCAGGUG; test: optical tweezers force ramp; settings: 250 mM KCl, 20 mM NaCl, 5 mM MgCl2; 40 mM HEPES pH 7.4, ~25 °C; intermediate I1 stabilised as in short stem
[4] = test system: G12 short stem (SMFS construct) (RNA, aptamer) GGCAGGGCUGACGUAGUUGGAGUGGUGCGGGAGGCCGUGGUCAUUGAGUGAACAGACGUCAAGCUAGUUGGGCUACUGGCUUCACGGAGUGAGGGCAGAAUUCAGGUG; test: optical tweezers force-jump, koff/kon; settings: 250 mM KCl, 20 mM NaCl, 5 mM MgCl2; 40 mM HEPES pH 7.4, ~25 °C; near-zero force; koff 0.0055 s-1, kon 0.42 s-1 µM-1
[5] = test system: G12 no stem (SMFS construct) (RNA, aptamer) GGCAGGGCUGACGUAGUUGGAGUGGUGCGGGAGGGUCAUUGAGUGAACAGACGUCAAGCUAGUUGGGCUACUGGCUUAGUGAGGGCAGAAUUCAGGUG; test: optical tweezers passive mode, koff/kon; settings: 250 mM KCl, 20 mM NaCl, 5 mM MgCl2; 40 mM HEPES pH 7.4, ~25 °C; extrapolated to zero force; koff 6.0 s-1
[6] = test system: G12 (RNA, aptamer) GGGCAACUCCAAGCUAGAUCUACCGGUAAUUUAGGUCAUUGAGUGAACAGACGUCAAGCUAGUUGGGCUACUGGCUUCUAAAACACAGGUAAAAUG; test: fluorescence titration, Hill fit (ex 375 nm, em 530 nm); settings: 20 °C; 10 nM doxycycline

binding [1]: yes
binding ([2]; 1 nM tetracycline): no
Compound: CN(C)[C@@H]1C(=O)C(C(N)=O)=C(O)[C@@]2(O)C(=O)C3=C(O)c4c(O)cccc4[C@@](C)(O)[C@H]3C[C@@H]12

binding ([2]; 5 nM 7-chloro-tetracycline): no
Compound: CN(C)[C@@H]1C(O)=C(C(N)=O)C(=O)[C@@]2(O)C(O)=C3C(=O)c4c(O)ccc(Cl)c4[C@@](C)(O)[C@H]3C[C@@H]12

binding ([2]; 5 nM sancycline): no
Compound: CN(C)[C@@H]1C(O)=C(C(N)=O)C(=O)[C@@]2(O)C(O)=C3C(=O)c4c(O)cccc4C[C@H]3C[C@@H]12

binding ([2]; 20 nM minocycline): no
Compound: CN(C)c1ccc(O)c2c1C[C@H]1C[C@H]3[C@H](N(C)C)C(O)=C(C(N)=O)C(=O)[C@@]3(O)C(O)=C1C2=O

binding [3]: yes
KD,0 [4]: 13.1 nM
KD,0 [5]: 3800 nM
KD [6]: 2.8 nM
Compound: C[C@H]1c2cccc(O)c2C(=O)C2=C(O)[C@]3(O)C(=O)C(C(N)=O)=C(O)[C@@H](N(C)C)[C@@H]3[C@@H](O)[C@@H]21

binding ([2]; 20 nM anhydrotetracycline): no
Compound: Cc1c2c(c(O)c3c(O)cccc13)C(=O)[C@]1(O)C(O)=C(C(N)=O)C(=O)[C@@H](N(C)C)[C@@H]1C2
